We go through one compound from paper PMC9917099, “The Mycotoxin Patulin Inhibits the Mitochondrial Carnitine/Acylcarnitine Carrier (SLC25A20) by Interaction with Cys136 Implications for Human Health” (International Journal of Molecular Sciences, 2023).

Substitutions are numbered along the chain they refer to.

In experiment [1] the target is T1, rat CAC mutant C136S (Rattus norvegicus, UniProt P97521, C136S).
T1 construct: made in house; host or cells: E. coli C0214 (pMW7, inclusion bodies)
T1 sequence (P97521 1-301 C136S): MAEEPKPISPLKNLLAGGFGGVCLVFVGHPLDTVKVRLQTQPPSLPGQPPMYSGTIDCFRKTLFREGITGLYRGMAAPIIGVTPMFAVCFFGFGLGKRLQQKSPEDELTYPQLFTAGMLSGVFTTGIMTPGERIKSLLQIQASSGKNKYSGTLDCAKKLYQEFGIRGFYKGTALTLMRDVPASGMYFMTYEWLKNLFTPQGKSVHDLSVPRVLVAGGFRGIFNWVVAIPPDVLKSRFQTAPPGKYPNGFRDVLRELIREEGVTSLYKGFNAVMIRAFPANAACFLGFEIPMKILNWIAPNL
Put plainly: Carnitine antiport in proteoliposomes, CAC mutant C136S. The format is biochemical. How it is done:
To shed light on the interaction between PAT and CAC and verify if specific Cys residues were involved, transport experiments on the recombinant rat and human WT CAC and CAC’s rat Cys mutants were performed. As in the case of the native protein, transport activities were measured as [^3H]-carnitine/carnitine antiport in proteoliposomes. […] The PAT inhibition of the WT recombinant protein was only slightly greater compared to the native protein, although compounds and other molecular systems that affect the mycotoxin binding to the native CAC were absent (see above). For identifying the residues involved in the PAT interaction, site-directed Cys mutants were tested for inhibition (Figure 2). […]
Figure 2 Dose-response analysis of the PAT inhibition of the CAC recombinant proteins. […] The data are expressed as a percentage of the controls (no PAT addition) and are means ± SD of three independent experiments. […]
(§1) For the transport assay, 550 μL of proteoliposomes were passed through a Sephadex G-75 column in order to remove the external substrate. […] After finishing the transport reaction, the external radiolabel substrate was removed by gel filtration chromatography (Sephadex G-75), and the intraliposomal radioactivity was measured by liquid scintillation. Transport was measured at 25 °C. […] Transport rates were measured in 10 min, i.e., within the initial linear range of the time course.

Experiment [2] has as its target T2, rat CAC C-less mutant (C23V/C58V/C89S/C136V/C155V/C283S) (Rattus norvegicus, UniProt P97521, C136V/C155V/C23V/C283S/C58V/C89S).
T2 construct: made in house; host or cells: E. coli C0214 (pMW7, inclusion bodies)
T2 sequence (P97521 1-301 C23V/C58V/C89S/C136V/C155V/C283S): T1 sequence (P97521 1-301 C136S) with C23V, C58V, C89S, S136V, C155V, C283S
Kind of experiment: Carnitine antiport in proteoliposomes, C-less CAC mutant. The format is biochemical. The protocol: To shed light on the interaction between PAT and CAC and verify if specific Cys residues were involved, transport experiments on the recombinant rat and human WT CAC and CAC’s rat Cys mutants were performed. As in the case of the native protein, transport activities were measured as [^3H]-carnitine/carnitine antiport in proteoliposomes. […] The PAT inhibition of the WT recombinant protein was only slightly greater compared to the native protein, although compounds and other molecular systems that affect the mycotoxin binding to the native CAC were absent (see above). For identifying the residues involved in the PAT interaction, site-directed Cys mutants were tested for inhibition (Figure 2). […] The choice of this last mutant was due to the proximity of C155 to C136 during some steps of the substrate translocation mechanism. […]
as §1

As for `O=C1C=C2C(=CCOC2O)O1` (centres unmarked) [PAT, 4-hydroxy-4H-furo [3,2c] pyran-2 [6H] -one], the IC50 entry in experiment [1] was “not possible to detect”. In addition, the “effect on transport activity” value in experiment [2] is recorded as “no effect”.
